Source: publication PMC6440464 (PeerJ, 2019)
Like-named read-outs stand apart in the source and are kept apart here.

Assay: Pharmacokinetics study after separate oral administration in rats (HPLC-MS of plasma)
Type: in vivo, Sprague-Dawley rats
Conditions: male, Sprague-Dawley, rat, plasma, 50 mg/kg; for Tmax / AUC(0-t) / CL/F / Cmax / MRT last / half-life: po, rat plasma; for Tmax: read-out: Tmax (converted); for CL/F: read-out: CLz/F; for Cmax: read-out: Cmax; for half-life: read-out: t1/2z
Method: A total of 15 SPF Sprague-Dawley rats (SD, male, 190–210 g) were provided by Sino-British Sippr/BK Lab Animal Company Ltd. (Shanghai, China). The rats were kept in standard conditions (22–26 °C; 40–60% relative humidity; 12 h light/dark cycle). Throughout the rearing period, the animals had access to food and water ad libitum. Animal experiments were conducted in accordance with the standard ethical guidelines of the Laboratory Animal Management Committee of Jiangsu Province (SYXK (SU) 2016-0011).
Following 1 week of adaptation, the rats were fasted for about 12 h before dosing, with free access to water. […] After administration of the first dose, blood samples were taken from the retro-orbital vein at 0, 5, 15, 30, 60, 90, 120, 180, 240, 360, 480, and 1,440 min and collected in heparinized tubes. The samples were centrifuged at 3,500 rpm for 10 min at 4 °C and the plasma was stored at −80 °C until analysis.
An Agilent 1,200 series HPLC system (Agilent Technologies, Waldbronn, Germany) equipped with a quaternary pump on-line degasser, auto-sampler and column oven, and an SL G1946D quadruple mass spectrometer (Agilent Technologies, Santa Clara, CA, USA) equipped with an electrospray ionization (ESI) source, were used for separation and detection. Data were acquired and analyzed using Agilent ChemStation Software Version A.01.00 (Agilent Technologies, Santa Clara, CA, USA).
The separation was carried out with an Amethyst C18-H column (150 × 4.6 mm, 5 μm, Sepax Technologies, Newark, DE, USA) with a guard column SB-C18 (10 × 4.6 mm, 5 μm, Phenomenex Technologies, Torrance, USA) at a constant temperature of 25 °C.
The mass spectra were acquired using ESI interfaced to a single quadrupole mass spectrometer. The ionization conditions were as follows: drying gas (N2) flow rate of 11 L/min, drying gas temperature of 350 °C, nebulizing gas (N2) pressure of 35 psi, capillary voltage of 3,500 V, quad temperature of 100 °C, and fragment voltage of 110 V. A series of m/z were monitored using a timed program according to the retention times and characteristic ions for the corresponding HPLC-MS peak obtained by scanning from m/z 100–1,000 in the standard sample.
Briefly, an aliquot of plasma sample (100 μL) was spiked with 5% formic acid (10 μL) in centrifuge tube. Subsequently, hydrochloric acid (2 mol/L, 10 μL) and IS solution (960.00 ng/mL, 20 μL) were added. Then ethyl acetate/n-butyl alcohol (1:1 v/v; 1,000 μL) was used to extract the components. The samples were then homogenized by vortex mixing and centrifuged for 10 min at 14,000 rpm. After centrifugation, 800 μL of supernatant was transferred to another centrifuge tube and the sample was evaporated to dryness. The residues were dissolved in 100 μL of methanol and centrifuged for 10 min at 12,000 rpm. 50 μL of the supernatant was transferred to the vial and an aliquot of 5 μL was injected into the HPLC-MS system for analysis.
DAS 2.0 (Chinese Pharmacological Association, Shanghai, China) was used to calculate the pharmacokinetic parameters using the non-compartment model, including the area under curve (AUC), mean residence time (MRT), half-life ( t1/2z), clearance rate (CL), maximum plasma concentration (Cmax), and time (Tmax). All results are expressed as mean ± standard deviation (SD). One way analysis of variance followed by […] was used for comparison of different groups using Graph pad prism 5 software. A p-value of <0.05 was considered statistically significant.

[1] = IQ group (oral IQ 50 mg/kg), labelled substance = analyte, mean of 5 rats
[2] = IQ group: oral IQ 50 mg/kg, mean ± SD, n = 5
[3] = QG group (oral QG 50 mg/kg), labelled substance = analyte, mean of 5 rats
[4] = QG group: oral QG 50 mg/kg, mean ± SD, n = 5
[5] = Qr group (oral Qr 50 mg/kg), labelled substance = analyte, mean of 5 rats
[6] = Qr group: oral Qr 50 mg/kg, mean ± SD, n = 5

O=c1c(O)c(-c2ccc(O)c(O)c2)oc2cc(O)cc(O)c12 [Qr, Quercetin]
concentration at 5 min (oral, QG group (oral QG 50 mg/kg), 5 min, individual rats NO. 1-5, read-out: Plasma concentrations): 0 ng/mL
concentration at 15 min (oral, QG group (oral QG 50 mg/kg), 15 min, individual rats NO. 1-5, read-out: Plasma concentrations): 0 ng/mL
concentration at 30 min (oral, QG group (oral QG 50 mg/kg), 30 min, individual rats NO. 1-5, read-out: Plasma concentrations): 0 ng/mL
concentration at 240 min (oral, Qr group (oral Qr 50 mg/kg), 240 min, individual rats NO. 1-5, read-out: Plasma concentrations): 2590 ng/mL
Tmax (IQ group (oral IQ 50 mg/kg), labelled substance = analyte, individual rats No1-No5): 0.5 h
AUC(0-t) (IQ group (oral IQ 50 mg/kg), labelled substance = analyte, mean of 5 rats, read-out: AUC(0-t) (converted)): 36900 ng·h/mL
CL/F [1]: 24 mL/min/kg
Cmax [1]: 6600 ng/mL
MRT last (IQ group (oral IQ 50 mg/kg), labelled substance = analyte, mean of 5 rats, read-out: MRT(0-t) (converted)): 7.04 h
Tmax [1]: 0.7 h
half-life [1]: 6.31 h
AUC(0-t) (IQ group: oral IQ 50 mg/kg, mean ± SD, n = 5, read-out: AUC0−t (converted)): 36900 ng·h/mL
Cmax [2]: 6600 ± 2670 ng/mL
MRT last (IQ group: oral IQ 50 mg/kg, mean ± SD, n = 5, read-out: MRT0−t (converted)): 7.04 h
Tmax [2]: 0.7 h
half-life [2]: 6.31 ± 5.65 h
Tmax (QG group (oral QG 50 mg/kg), labelled substance = analyte, individual rats No1-No5): 4 h
AUC(0-t) (QG group (oral QG 50 mg/kg), labelled substance = analyte, mean of 5 rats, read-out: AUC(0-t) (converted)): 58400 ng·h/mL
CL/F [3]: 14 mL/min/kg
Cmax [3]: 5170 ng/mL
Tmax [3]: 6 h
half-life [3]: 6.09 h
AUC(0-t) (QG group: oral QG 50 mg/kg, mean ± SD, n = 5, read-out: AUC0−t (converted)): 58400 ng·h/mL
Cmax [4]: 5170 ± 1850 ng/mL
Tmax [4]: 6 h
half-life [4]: 6.09 ± 2.53 h
MRT last (Qr group (oral Qr 50 mg/kg), labelled substance = analyte, individual rats No1-No5, read-out: MRT(0-t) (converted)): 6.33 h
half-life (Qr group (oral Qr 50 mg/kg), labelled substance = analyte, individual rats No1-No5): 7.67 h
AUC(0-t) (Qr group (oral Qr 50 mg/kg), labelled substance = analyte, mean of 5 rats, read-out: AUC(0-t) (converted)): 43200 ng·h/mL
CL/F [5]: 20 mL/min/kg
Cmax [5]: 7470 ng/mL
Tmax [5]: 0.9 h
half-life [5]: 7.29 h
AUC(0-t) (Qr group: oral Qr 50 mg/kg, mean ± SD, n = 5, read-out: AUC0−t (converted)): 43200 ng·h/mL
Cmax [6]: 7470 ± 2630 ng/mL
Tmax [6]: 0.9 h
half-life [6]: 7.29 ± 0.905 h
